Test results reported in patent US9957214B2, “Multifunctional radical quenchers” (ARIZONA BOARD OF REGENTS ON BEHALF OF ARIZONA STATE …, priority 2012, dated 2018).

Tests used:
[1] = biological target: bovine heart mitochondrial complex I (Bos taurus, UniProt P03887+P17694+P42026); test: Complex I (NADH-Q1 oxidoreductase) inhibition in submitochondrial particles; format: biochemical; conditions: submitochondrial particles, 30° C.; for IC50: read-out: Complex I inhibition IC50; for Emax: read-out: Complex I inhibition Imax
Hsp90 = Hsp90 client protein immunodetection assay (Her2 degradation, Hsp70 induction) in BT474 cells; format: cell-based, human; conditions: 24 h
Protocol: FIG. 9. A cell-based immunodetection assay was used to monitor Hsp90 client protein, Her2 protein degradation (A), and the induction of a heat shock response Hsp70 protein levels (B) in Her2-overexpressing BT474 cell line. The effects of 40 and geldanamycin were compared to vehicle (DMSO) after treatment with varying concentrations of the compounds for 24 h. Each measurement is an average of three independent experiments run in […].
The classic method of following the cellular activity of Hsp90 inhibitors is through the proteasome-dependent degradation of Hsp90 client proteins. […] Another hallmark of Hsp90 inhibition is the induction of a heat shock response, which was evaluated by determining the Hsp70 protein levels by […]. […] The plates were read immediately on a luminometer (Clarity™ luminescence microplate reader). Readings from wells containing only control IgG and the corresponding horseradish peroxidase-linked secondary antibody were set as background and subtracted from all measured values. The average chemiluminescence signals obtained were expressed as a percentage of Her2 reduction or Hsp70 induction in comparison to vehicle (DMSO). Values were calculated from three independent experiments performed in triplicate.

Chain of bovine heart mitochondrial complex I (P25708 21-464): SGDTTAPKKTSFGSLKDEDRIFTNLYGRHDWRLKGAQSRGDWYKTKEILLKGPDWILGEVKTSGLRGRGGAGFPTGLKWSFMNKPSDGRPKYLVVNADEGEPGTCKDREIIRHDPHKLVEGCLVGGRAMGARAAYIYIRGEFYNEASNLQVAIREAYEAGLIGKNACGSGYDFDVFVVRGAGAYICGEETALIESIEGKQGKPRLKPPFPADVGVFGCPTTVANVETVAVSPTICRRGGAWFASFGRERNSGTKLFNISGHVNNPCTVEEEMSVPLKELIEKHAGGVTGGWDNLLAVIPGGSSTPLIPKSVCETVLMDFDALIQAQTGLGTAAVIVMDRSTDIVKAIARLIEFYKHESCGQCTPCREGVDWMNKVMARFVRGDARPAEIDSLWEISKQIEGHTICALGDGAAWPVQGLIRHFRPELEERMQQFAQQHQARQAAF
Chain of bovine heart mitochondrial complex I (P42026 38-216): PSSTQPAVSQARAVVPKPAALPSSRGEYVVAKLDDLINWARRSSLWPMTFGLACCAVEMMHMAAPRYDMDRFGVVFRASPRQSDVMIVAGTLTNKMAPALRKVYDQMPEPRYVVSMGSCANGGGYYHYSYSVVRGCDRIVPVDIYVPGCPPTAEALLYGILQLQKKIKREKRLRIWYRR
Chain of bovine heart mitochondrial complex I (P17694 34-463): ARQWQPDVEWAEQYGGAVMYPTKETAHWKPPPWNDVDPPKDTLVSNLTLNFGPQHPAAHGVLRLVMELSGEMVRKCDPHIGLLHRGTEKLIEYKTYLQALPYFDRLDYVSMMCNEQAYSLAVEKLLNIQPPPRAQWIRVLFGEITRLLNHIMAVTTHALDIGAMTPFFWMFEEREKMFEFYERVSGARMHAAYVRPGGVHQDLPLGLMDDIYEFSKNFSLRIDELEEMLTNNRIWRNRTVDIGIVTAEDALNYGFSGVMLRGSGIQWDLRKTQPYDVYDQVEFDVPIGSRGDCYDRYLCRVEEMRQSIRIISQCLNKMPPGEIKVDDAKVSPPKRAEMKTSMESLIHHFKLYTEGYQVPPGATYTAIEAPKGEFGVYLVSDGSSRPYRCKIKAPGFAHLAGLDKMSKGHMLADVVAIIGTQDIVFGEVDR
Chain of bovine heart mitochondrial complex I (P15690 24-727, further chain): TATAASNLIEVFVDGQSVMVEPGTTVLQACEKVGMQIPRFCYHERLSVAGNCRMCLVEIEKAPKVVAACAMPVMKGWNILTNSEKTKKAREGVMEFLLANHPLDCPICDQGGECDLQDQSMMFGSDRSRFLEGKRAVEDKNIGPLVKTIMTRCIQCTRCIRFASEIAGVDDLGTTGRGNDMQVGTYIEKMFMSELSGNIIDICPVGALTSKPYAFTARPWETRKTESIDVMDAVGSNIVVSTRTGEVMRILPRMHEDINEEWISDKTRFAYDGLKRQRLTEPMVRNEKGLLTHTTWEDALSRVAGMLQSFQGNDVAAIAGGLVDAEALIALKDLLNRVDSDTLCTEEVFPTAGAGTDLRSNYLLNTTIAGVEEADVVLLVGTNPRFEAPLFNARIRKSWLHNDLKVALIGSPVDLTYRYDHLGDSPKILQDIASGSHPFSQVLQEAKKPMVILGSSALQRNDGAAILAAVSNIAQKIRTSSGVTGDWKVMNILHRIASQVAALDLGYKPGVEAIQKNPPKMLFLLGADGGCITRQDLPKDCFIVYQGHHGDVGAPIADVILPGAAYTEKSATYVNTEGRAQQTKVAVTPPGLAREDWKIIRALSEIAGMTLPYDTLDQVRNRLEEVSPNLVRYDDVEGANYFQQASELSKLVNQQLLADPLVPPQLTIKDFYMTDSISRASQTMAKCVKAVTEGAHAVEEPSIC
Chain of bovine heart mitochondrial complex I (P03887 whole entry): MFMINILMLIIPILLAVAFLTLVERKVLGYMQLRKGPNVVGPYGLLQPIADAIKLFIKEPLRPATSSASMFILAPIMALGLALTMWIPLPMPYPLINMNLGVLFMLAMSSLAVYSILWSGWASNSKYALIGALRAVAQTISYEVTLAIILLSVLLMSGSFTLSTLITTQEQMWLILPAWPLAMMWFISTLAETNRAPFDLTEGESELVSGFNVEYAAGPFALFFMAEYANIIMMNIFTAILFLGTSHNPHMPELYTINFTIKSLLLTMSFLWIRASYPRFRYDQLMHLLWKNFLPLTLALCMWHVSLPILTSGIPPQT
Chain of bovine heart mitochondrial complex I (P42028 37-212, further chain): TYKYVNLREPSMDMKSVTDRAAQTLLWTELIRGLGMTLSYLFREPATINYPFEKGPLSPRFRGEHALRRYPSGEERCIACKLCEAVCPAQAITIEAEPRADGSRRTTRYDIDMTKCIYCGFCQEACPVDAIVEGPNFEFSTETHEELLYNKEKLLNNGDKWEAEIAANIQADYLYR

| Structure (SMILES) | IC50 [1] [µM] | Emax [1] [%] | Hsp90 inhibition judged by client proteins Her2 and Hsp70 (in words) (Hsp90) |
| --- | --- | --- | --- |
| CCCCCCCCCCCCCC1=C(OC)C(=O)C=C(NCCCC(=O)OCCCCCC)C1=O [Compound 18, Hexyl 4-(4-methoxy-3,6-dioxo-5-tridecylcyclohexa-1,4-dienylamino)butanoate] | 513 ± 38 | > 85 | – |
| COC1=C2CCCCCCCCCCCCCCCNC(=CC1=O)C2=O [Compound 40] | – | – | did not inhibit Hsp90 |
| CCCCCCCCCCCCCC1=C(OC)C(=O)C=C(NCCCC(=O)OC(C)(C)C)C1=O [Compound 7, tert-butyl 4-(4-methoxy-3,6-dioxo-5-tridecylcyclohexa-1,4-dienylamino)butanoate] | 540 ± 17 | > 85 | – |
